Data from ChEMBL document CHEMBL4265987, “Identification of inhibitors of the E. coli chaperone SurA using in silico and in vitro techniques” (Bioorg Med Chem Lett, 2018).
Blank lines part the entries; values can stand above or below the compound they belong to. Activity calls are given as the source filed them. No cut-off for these calls is given here. Peptide text beside a SMILES is read from it.

Legend:
Chaperone SurA [1] = biological target: T1, Chaperone SurA (Escherichia coli (strain K12), UniProt P0ABZ6); assay: Inhibition of rhodamine-WEYIPNV binding to Escherichia coli SurA by fluorescence anisotropy
T1 sequence (P0ABZ6 whole entry): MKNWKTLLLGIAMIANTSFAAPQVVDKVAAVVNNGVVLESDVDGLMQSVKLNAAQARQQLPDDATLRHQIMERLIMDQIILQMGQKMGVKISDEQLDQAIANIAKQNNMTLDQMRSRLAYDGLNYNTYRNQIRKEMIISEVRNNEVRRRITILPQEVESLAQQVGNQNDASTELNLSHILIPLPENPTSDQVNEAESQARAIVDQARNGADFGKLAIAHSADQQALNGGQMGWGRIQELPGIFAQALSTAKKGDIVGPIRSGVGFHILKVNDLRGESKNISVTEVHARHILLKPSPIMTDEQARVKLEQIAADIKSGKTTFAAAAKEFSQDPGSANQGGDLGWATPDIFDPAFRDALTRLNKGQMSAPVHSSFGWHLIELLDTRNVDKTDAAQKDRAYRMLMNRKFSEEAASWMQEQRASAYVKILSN

[2] = biological target: T2, Chaperone SurA (Escherichia coli (strain K12)) (UniProt P0ABZ6); assay: Inhibition of rhodamine-WEYIPNV binding to Escherichia coli SurA up to 2.5 uM by fluorescence anisotropy
T2 sequence (whole entry): T1 sequence (P0ABZ6 whole entry)

[3] = Binding affinity to Rhodamine-WEYIPNV up to 3 uM by fluorescence anisotropy
[4] = biological target: T2, Chaperone SurA (Escherichia coli (strain K12)); assay: Inhibition of rhodamine-WEYIPNV binding to Escherichia coli SurA up to 2 uM by fluorescence anisotropy
[5] = biological target: T2, Chaperone SurA (Escherichia coli (strain K12)); conditions: up to 3 µM
Description: Inhibition of rhodamine-WEYIPNV binding to Escherichia coli SurA up to 3 uM by fluorescence anisotropy

[6] = biological target: T2, Chaperone SurA (Escherichia coli (strain K12)); assay: Inhibition of rhodamine-WEYIPNV binding to Escherichia coli SurA up to 1.5 uM by fluorescence anisotropy
Chaperone SurA [7] = biological target: T1, Chaperone SurA; assay: Inhibition of rhodamine-WEYIPNV binding to Escherichia coli SurA in presence of 0.01% Triton-X-100 by fluorescence anisotropy
[8] = biological target: T2, Chaperone SurA (Escherichia coli (strain K12)); assay: Binding affinity to Escherichia coli SurA at 5 nM by fluorescence anisotropy

IC50 (Chaperone SurA [1]): 2.66 µM
Compound: CC[C@H](C)[C@H](NC(=O)[C@H](Cc1ccc(O)cc1)NC(=O)[C@H](CCC(=O)O)NC(=O)[C@@H](N)Cc1c[nH]c2ccccc12)C(=O)N1CCC[C@H]1C(=O)N[C@@H](CC(N)=O)C(=O)N[C@H](C(=O)O)C(C)C

inhibition [2]: inactive
Compound: O=C1OC2(c3ccc(O)cc3Oc3cc(O)ccc32)c2ccc(N3C(=O)C=CC3=O)cc21

Activity [3]: inactive
IC50 (Chaperone SurA [1]): 23.3 µM
Compound: O=C(N[C@@H](Cc1c[nH]c2ccccc12)C(=O)O)OCC1c2ccccc2-c2ccccc21

inhibition [4]: inactive
Compound: CN1/C(=C\C=C2/CCC(/C=C/C3=[N+](C)c4ccccc4C3(C)C)=C2Cl)C(C)(C)c2ccccc21

inhibition [5]: inactive
Compound: N[C@@H](Cc1cnc[nH]1)C(=O)NCC(=O)NCC(=O)O (H-His-Gly-Gly-OH)

inhibition [6]: inactive
Compound: c1cc(C2=N[C@H]3c4ccccc4C[C@H]3O2)nc(C2=N[C@H]3c4ccccc4C[C@H]3O2)c1

Activity [3]: inactive
IC50 (Chaperone SurA [1]): 152 µM
Compound: O=C(N[C@@H](Cc1ccccc1)C(=O)O)OCC1c2ccccc2-c2ccccc21

inhibition [2]: inactive
Compound: O=C(O)CCNC(=O)OCC1c2ccccc2-c2ccccc21

inhibition [2]: inactive
Compound: O=C(N[C@@H](Cc1ccc(O)cc1)C(=O)O)OCC1c2ccccc2-c2ccccc21

inhibition [2]: inactive
Compound: CC[C@H](C)[C@H](NC(=O)OCC1c2ccccc2-c2ccccc21)C(=O)O

inhibition [2]: inactive
Compound: C[C@H](NC(=O)OCC1c2ccccc2-c2ccccc21)C(=O)O

inhibition [5]: inactive
Compound: H-KQAGNV-OH

inhibition [4]: inactive
Compound: O=C(OCC1c2ccccc2-c2ccccc21)N1CCC[C@H]1C(=O)n1nnc2ccccc21

Activity [3]: inactive
IC50 (Chaperone SurA [7]): 37.4 µM
IC50 (Chaperone SurA [1]): 57 µM
Compound: O=C(N[C@H](Cc1ccc2ccccc2n1)C(=O)O)OCC1c2ccccc2-c2ccccc21

Activity [8]: Active
Compound: O=C1OC2(c3ccc(O)cc3Oc3cc(O)ccc32)c2ccccc21
